Read-outs that look alike come from different tables or passages of the source.
Key:
CDK2-CYCLINA = molecular target: T1, CDK2-CYCLINA (Homo sapiens, UniProt P24941); test: Microfluidic LabChip kinase inhibition assay, CDK2-CyclinA; assay type: biochemical; settings: 50 μM ATP
T1 construct: purchased Millipore

CDK9-CYCLINT1 = molecular target: T2, CDK9-CYCLINT1 (Homo sapiens, UniProt P50750); test: Microfluidic LabChip kinase inhibition assay, CDK9-CyclinT1; assay type: biochemical
T2 construct: purchased Carna

CDK1/B = CDK1/B (Homo sapiens, UniProt P06493); test: Additional inhibition assay, CDK1/B; assay type: biochemical
CDK7 CyclinH = CDK7 CyclinH (Homo sapiens, UniProt P50613); test: Additional inhibition assay, CDK7 CyclinH; assay type: biochemical
CDK4-CYCLIND1 = CDK4-CYCLIND1 (Homo sapiens, UniProt P11802); test: Microfluidic LabChip kinase inhibition assay, CDK4-CyclinD1; settings: CDK4 CyclinD1 IC50 (μM), 200 μM ATP, second value in parentheses on the next line
[1] = Table 3a, 10 μM ATP, read-out: CDK9 CyclinT1 IC50

Chain of CDK7 CyclinH (P50613 whole entry): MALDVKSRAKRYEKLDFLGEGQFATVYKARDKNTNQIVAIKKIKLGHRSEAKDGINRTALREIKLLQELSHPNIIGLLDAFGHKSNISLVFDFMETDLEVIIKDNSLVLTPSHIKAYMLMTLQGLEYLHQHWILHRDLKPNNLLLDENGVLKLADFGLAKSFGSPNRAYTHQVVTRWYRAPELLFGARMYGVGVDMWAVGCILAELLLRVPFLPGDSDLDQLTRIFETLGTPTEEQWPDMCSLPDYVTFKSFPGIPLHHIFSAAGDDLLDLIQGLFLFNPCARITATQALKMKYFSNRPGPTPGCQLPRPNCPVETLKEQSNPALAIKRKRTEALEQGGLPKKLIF
Chain of CDK7 CyclinH (P51946 whole entry partner): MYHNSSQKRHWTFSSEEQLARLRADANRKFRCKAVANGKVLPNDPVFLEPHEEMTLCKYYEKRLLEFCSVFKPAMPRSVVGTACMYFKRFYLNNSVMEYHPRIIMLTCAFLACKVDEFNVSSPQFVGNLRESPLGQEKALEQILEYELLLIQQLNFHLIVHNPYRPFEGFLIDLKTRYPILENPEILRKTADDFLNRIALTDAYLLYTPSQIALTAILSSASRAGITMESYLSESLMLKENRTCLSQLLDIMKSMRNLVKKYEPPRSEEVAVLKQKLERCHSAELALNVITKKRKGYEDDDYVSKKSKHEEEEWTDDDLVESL
Chain of CDK7 CyclinH (P51948 whole entry partner): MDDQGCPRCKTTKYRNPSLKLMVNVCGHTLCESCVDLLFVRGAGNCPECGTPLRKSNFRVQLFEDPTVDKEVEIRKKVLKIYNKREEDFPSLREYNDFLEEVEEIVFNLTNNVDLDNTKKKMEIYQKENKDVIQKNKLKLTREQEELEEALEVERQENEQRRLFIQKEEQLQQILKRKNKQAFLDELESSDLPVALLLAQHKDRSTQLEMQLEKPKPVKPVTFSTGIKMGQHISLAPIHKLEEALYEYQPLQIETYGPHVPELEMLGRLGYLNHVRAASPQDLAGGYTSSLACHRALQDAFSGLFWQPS
Chain of CDK4-CYCLIND1 (P11802 whole entry): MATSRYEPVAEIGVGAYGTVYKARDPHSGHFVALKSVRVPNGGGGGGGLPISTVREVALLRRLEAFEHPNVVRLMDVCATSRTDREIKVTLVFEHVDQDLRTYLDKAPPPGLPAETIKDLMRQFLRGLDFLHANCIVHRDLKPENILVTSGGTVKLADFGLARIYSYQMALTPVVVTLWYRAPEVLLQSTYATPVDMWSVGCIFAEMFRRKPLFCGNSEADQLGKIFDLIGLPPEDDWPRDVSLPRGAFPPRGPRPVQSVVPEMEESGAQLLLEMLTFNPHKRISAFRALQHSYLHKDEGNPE
Chain of CDK4-CYCLIND1 (P24385 whole entry partner): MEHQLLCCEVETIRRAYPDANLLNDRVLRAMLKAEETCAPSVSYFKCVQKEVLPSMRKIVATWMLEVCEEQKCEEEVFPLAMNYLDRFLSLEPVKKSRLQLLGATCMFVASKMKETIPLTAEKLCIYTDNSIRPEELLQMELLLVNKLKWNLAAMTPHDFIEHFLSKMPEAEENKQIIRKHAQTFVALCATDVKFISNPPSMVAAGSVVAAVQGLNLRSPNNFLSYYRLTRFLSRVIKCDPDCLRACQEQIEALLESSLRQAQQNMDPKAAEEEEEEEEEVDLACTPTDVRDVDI
Chain of CDK1/B (P06493 whole entry): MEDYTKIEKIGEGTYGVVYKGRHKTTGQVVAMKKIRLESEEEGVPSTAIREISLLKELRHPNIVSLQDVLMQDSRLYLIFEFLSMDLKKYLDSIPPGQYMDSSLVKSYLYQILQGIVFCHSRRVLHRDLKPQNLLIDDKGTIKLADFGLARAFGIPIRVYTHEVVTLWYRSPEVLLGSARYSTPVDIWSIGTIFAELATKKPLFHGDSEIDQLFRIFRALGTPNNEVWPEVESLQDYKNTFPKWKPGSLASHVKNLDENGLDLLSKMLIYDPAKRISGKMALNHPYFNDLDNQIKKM
Chain of CDK1/B (P14635 whole entry partner): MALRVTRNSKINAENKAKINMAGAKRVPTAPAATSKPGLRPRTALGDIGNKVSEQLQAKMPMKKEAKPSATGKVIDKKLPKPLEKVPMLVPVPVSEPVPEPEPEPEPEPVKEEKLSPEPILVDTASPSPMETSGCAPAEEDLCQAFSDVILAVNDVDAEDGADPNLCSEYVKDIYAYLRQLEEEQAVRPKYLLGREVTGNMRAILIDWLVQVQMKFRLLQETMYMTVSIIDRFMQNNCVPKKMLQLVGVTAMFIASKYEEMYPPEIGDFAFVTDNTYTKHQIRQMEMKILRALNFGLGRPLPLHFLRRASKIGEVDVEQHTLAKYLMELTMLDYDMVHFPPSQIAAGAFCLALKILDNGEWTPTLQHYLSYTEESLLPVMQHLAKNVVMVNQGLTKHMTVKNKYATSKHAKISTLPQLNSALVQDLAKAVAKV
T2 sequence (P50750 whole entry): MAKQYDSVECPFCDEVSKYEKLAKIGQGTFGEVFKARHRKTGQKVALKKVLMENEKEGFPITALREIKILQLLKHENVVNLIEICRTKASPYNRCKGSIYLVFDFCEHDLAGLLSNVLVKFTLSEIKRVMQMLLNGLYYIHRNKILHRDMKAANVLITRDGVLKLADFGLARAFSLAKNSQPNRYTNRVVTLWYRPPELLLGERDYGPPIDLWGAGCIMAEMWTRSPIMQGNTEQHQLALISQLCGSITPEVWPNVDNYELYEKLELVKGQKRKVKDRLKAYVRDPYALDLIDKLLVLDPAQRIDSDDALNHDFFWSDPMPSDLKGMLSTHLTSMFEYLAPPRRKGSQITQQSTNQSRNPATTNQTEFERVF
T2 sequence (O60563 whole entry partner): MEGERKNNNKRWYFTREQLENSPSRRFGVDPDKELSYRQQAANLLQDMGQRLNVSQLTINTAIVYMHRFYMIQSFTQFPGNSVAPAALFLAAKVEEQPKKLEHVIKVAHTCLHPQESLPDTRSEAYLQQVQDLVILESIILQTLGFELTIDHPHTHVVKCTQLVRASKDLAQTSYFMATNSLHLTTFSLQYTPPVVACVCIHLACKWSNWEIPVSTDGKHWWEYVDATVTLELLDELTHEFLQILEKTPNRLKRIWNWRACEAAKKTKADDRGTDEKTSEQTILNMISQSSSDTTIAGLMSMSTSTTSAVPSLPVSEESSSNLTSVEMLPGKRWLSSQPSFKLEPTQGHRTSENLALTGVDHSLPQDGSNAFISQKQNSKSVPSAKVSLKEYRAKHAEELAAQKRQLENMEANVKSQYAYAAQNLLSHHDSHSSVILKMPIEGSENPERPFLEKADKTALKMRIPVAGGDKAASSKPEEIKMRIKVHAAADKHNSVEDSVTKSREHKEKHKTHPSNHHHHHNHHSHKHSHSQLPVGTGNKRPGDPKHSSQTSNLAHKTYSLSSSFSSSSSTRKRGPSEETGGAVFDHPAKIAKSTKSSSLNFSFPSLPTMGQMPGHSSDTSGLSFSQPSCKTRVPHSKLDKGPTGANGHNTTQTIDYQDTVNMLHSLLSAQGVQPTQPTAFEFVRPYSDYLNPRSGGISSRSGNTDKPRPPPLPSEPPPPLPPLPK

Row | Compound | IC50 (CDK2-CYCLINA; Table 3a) | IC50 (CDK2-CYCLINA; Table 3b) | IC50 (CDK9-CYCLINT1; [1]) | IC50 (CDK1/B; Table 3a) | IC50 (CDK1/B; Table 3b) | IC50 (CDK7 CyclinH; Table 3a) | IC50 (CDK7 CyclinH; Table 3b) | IC50 (CDK4-CYCLIND1; Table 3a) | IC50 (CDK4-CYCLIND1; Table 3b) | IC50 (CDK9-CYCLINT1) | IC50 (CDK9-CYCLINT1; Table 3b, 10 μM ATP, read-out: CDK9 CyclinT1 IC50)
1 | O=C1NCCC12Cc1cnc(Nc3ccc(N4CCC(N5CCOCC5)CC4)c(F)c3)nc1N2C1CCCC1 (stereo not shown) [Compound C132, 7′-cyclopentyl-2′-((3-fluoro-4-(4-morpholinopiperidin-1-yl)phenyl)amino)-5′,7′-dihydrospiro[pyrrolidine-3,6′-pyrrolo[2,3-d]pyrimidin]-2-one] | 9.66 µM | 9.66 µM | 0.0402 µM | 6.93 µM | 6.93 µM | > 10 µM | > 10 µM | 0.0561 µM | 0.0561 µM |  | 
2 | CN1CCN(c2ccc(Nc3ncc4c(n3)N(C3CCCC3)C3(CCNC3=O)C4)cc2)CC1 (stereo not shown) [Compound C115, 7′-cyclopentyl-2′-((4-(4-methylpiperazin-1-yl)phenyl)amino)-5′,7′-dihydrospiro[pyrrolidine-3,6′-pyrrolo[2,3-d]pyrimidin]-2-one] | > 10 µM | > 10 µM | 0.149 µM | 9.11 µM | 9.11 µM | > 10 µM | > 10 µM | 0.116 µM | 0.116 µM |  | 
3 | CC1CN(c2ccc(Nc3ncc4c(n3)N(C3CCCC3)C3(CC(=O)NC3=O)C4)cc2)CC(C)N1 (stereo not shown) [Compound C208, 7′-cyclopentyl-2′-((4-(3,5-dimethylpiperazin-1-yl)phenyl)amino)-5′,7′-dihydrospiro[pyrrolidine-3,6′-pyrrolo[2,3-d]pyrimidine]-2,5-dione] | 2.28 µM | 2.28 µM | 0.0799 µM | 2.02 µM | 2.02 µM | > 10 µM | > 10 µM | 0.0668 µM | 0.0668 µM |  | 
4 | CN1CCN(c2ccc(Nc3ncc4c(n3)N(C3CCCC3)C3(CC(=O)NC3=O)C4)cc2)CC1 (single isomer, unassigned) [Compound C136, 7′-cyclopentyl-2′-((4-(4-methylpiperazin-1-yl)phenyl)amino)-5′,7′-dihydrospiro[pyrrolidine-3,6′-pyrrolo[2,3-d]pyrimidine]-2,5-dione] | 1.54 µM | 1.54 µM |  | 1.27 µM | 1.27 µM | 5.74 µM | 5.74 µM | 0.0257 µM | 0.0257 µM | 0.0805 µM | 
5 | CC(C)N1CC2(CN(c3ccc(Nc4ncc5c(n4)N(C4CCCC4)C4(CC(=O)NC4=O)C5)cc3)C2)C1 (stereo not shown) [Compound C150, 7′-cyclopentyl-2′-((4-(6-isopropyl-2,6-diazaspiro[3.3]heptan-2-yl)phenyl)amino)-5′,7′-dihydrospiro[pyrrolidine-3,6′-pyrrolo[2,3-d]pyrimidine]-2,5-dione] | > 10 µM | > 10 µM | 0.27 µM | > 10 µM | > 10 µM | > 10 µM | > 10 µM | 0.522 µM | 0.522 µM |  | 
6 | O=C1NCCC12Cc1cnc(Nc3ccc(N4CCC(N5CCOCC5)CC4)cc3)nc1N2C1CCCC1 (stereo not shown) [Compound C131, 7′-cyclopentyl-2′-((4-(4-morpholinopiperidin-1-yl)phenyl)amino)-5′,7′-dihydrospiro[pyrrolidine-3,6′-pyrrolo[2,3-d]pyrimidin]-2-one] | > 10 µM | > 10 µM | 0.298 µM | > 10 µM | > 10 µM | > 10 µM | > 10 µM | 0.273 µM | 0.273 µM |  | 
7 | CN(C)CCOc1ccc(Nc2ncc3c(n2)N(C2CCCC2)C2(CCNC2=O)C3)nc1 (stereo not shown) [Compound C210, 7′-cyclopentyl-2′-((5-(2-(dimethylamino)ethoxy)pyridin-2-yl)amino)-5′,7′-dihydrospiro[pyrrolidine-3,6′-pyrrolo[2,3-d]pyrimidin]-2-one] | > 10 µM | > 10 µM | > 10 µM | > 10 µM | > 10 µM | > 10 µM | > 10 µM | 3.96 µM | 3.96 µM |  | > 10 µM
8 | CC(C)c1ccc(Nc2ncc3c(n2)N(C2CCCC2)C2(CCNC2=O)C3)cc1 (stereo not shown) [Compound C209, 7′-cyclopentyl-2′-((4-isopropylphenyl)amino)-5′,7′-dihydrospiro[pyrrolidine-3,6′-pyrrolo[2,3-d]pyrimidin]-2-one] | 5.01 µM | 5.01 µM | 0.153 µM | > 10 µM | > 10 µM | > 10 µM | > 10 µM | 1.38 µM | 1.38 µM |  | 
9 | CC(C)N1CCN(c2ccc(Nc3ncc4c(n3)N(C3CCCC3)C3(CCNC3=O)C4)cc2F)CC1 (stereo not shown) [Compound C118, 7′-cyclopentyl-2′-((3-fluoro-4-(4-isopropylpiperazin-1-yl)phenyl)amino)-5′,7′-dihydrospiro[pyrrolidine-3,6′-pyrrolo[2,3-d]pyrimidin]-2-one] | 4.9 µM | 4.9 µM | 0.016 µM | 3.82 µM | 3.82 µM | > 10 µM | > 10 µM | 0.0264 µM | 0.0264 µM |  | 
10 | COc1cc(Nc2ncc3c(n2)N(C2CCCC2)C2(CCNC2=O)C3)ccc1N1CCN(C)CC1 (stereo not shown) [Compound C123, 7′-cyclopentyl-2′-((3-methoxy-4-(4-methylpiperazin-1-yl)phenyl)amino)-5′,7′-dihydrospiro[pyrrolidine-3,6′-pyrrolo[2,3-d]pyrimidin]-2-one] | > 10 µM | > 10 µM | 0.292 µM | > 10 µM | > 10 µM | > 10 µM | > 10 µM | 0.955 µM | 0.955 µM |  | 
11 | CN(C)[C@H]1CCN(c2ccc(Nc3ncc4c(n3)N(C3CCCC3)C3(CCNC3=O)C4)cc2F)C1 (stereo partly drawn) [Compound C173, 7′-cyclopentyl-2′-((4-((S)-3-(dimethylamino)pyrrolidin-1-yl)-3-fluorophenyl)amino)-5′,7′-dihydrospiro[pyrrolidine-3,6′-pyrrolo[2,3-d]pyrimidin]-2-one] | > 10 µM | > 10 µM | 0.0336 µM | 8.41 µM | 8.41 µM | > 10 µM | > 10 µM | 0.109 µM | 0.109 µM |  | 
12 | Cn1cc(-c2ccc(Nc3ncc4c(n3)N(C3CCCC3)C3(CCNC3=O)C4)cc2)cn1 (stereo not shown) [Compound C168, 7′-cyclopentyl-2′-((4-(1-methyl-1H-pyrazol-4-yl)phenyl)amino)-5′,7′-dihydrospiro[pyrrolidine-3,6′-pyrrolo[2,3-d]pyrimidin]-2-one] | > 10 µM | > 10 µM | 0.0231 µM | > 10 µM | > 10 µM | > 10 µM | > 10 µM | 1.31 µM | 1.31 µM |  | 
13 | Cc1cc(Nc2ncc3c(n2)N(C2CCCC2)C2(CCNC2=O)C3)ccc1N1CCN(C(C)C)CC1 (stereo not shown) [Compound C121, 7′-cyclopentyl-2′-((4-(4-isopropylpiperazin-1-yl)-3-methylphenyl)amino)-5′,7′-dihydrospiro[pyrrolidine-3,6′-pyrrolo[2,3-d]pyrimidin]-2-one] | > 10 µM | > 10 µM | 0.132 µM | > 10 µM | > 10 µM | > 10 µM | > 10 µM | 0.374 µM | 0.374 µM |  | 
14 | CN(C)[C@@H]1CCN(c2ccc(Nc3ncc4c(n3)N(C3CCCC3)C3(CCNC3=O)C4)cc2F)C1 (stereo partly drawn) [Compound C176, 7′-cyclopentyl-2′-((4-((R)-3-(dimethylamino)pyrrolidin-1-yl)-3-fluorophenyl)amino)-5′,7′-dihydrospiro[pyrrolidine-3,6′-pyrrolo[2,3-d]pyrimidin]-2-one] | > 10 µM | > 10 µM | 0.027 µM | 7.58 µM | 7.58 µM | > 10 µM | > 10 µM | 0.142 µM | 0.142 µM |  | 
15 | O=C1NCCC12Cc1cnc(Nc3ccc(N4CCC(N5CCOCC5)CC4)nc3)nc1N2C1CCCC1 (stereo not shown) [Compound C133, 7′-cyclopentyl-2′-((6-(4-morpholinopiperidin-1-yl)pyridin-3-yl)amino)-5′,7′-dihydrospiro[pyrrolidine-3,6′-pyrrolo[2,3-d]pyrimidin]-2-one] | > 10 µM | > 10 µM | 0.125 µM | > 10 µM | > 10 µM | > 10 µM | > 10 µM | 0.202 µM | 0.202 µM |  | 
16 | O=C1NCCC12Cc1cnc(Nc3ccc(OCCN4CCOCC4)cc3)nc1N2C1CCCC1 (stereo not shown) [Compound C165, 7′-cyclopentyl-2′-((4-(2-morpholinoethoxy)phenyl)amino)-5′,7′-dihydrospiro[pyrrolidine-3,6′-pyrrolo[2,3-d]pyrimidin]-2-one] | > 10 µM | > 10 µM | 0.0914 µM | > 10 µM | > 10 µM | > 10 µM | > 10 µM | 0.702 µM | 0.702 µM |  | 
17 | CN(C)[C@@H]1CCN(C(=O)c2ccc(Nc3ncc4c(n3)N(C3CCCC3)C3(CCNC3=O)C4)cc2)C1 (stereo partly drawn) [Compound C181, 7′-cyclopentyl-2′-((4-((R)-3-(dimethylamino)pyrrolidine-1-carbonyl)phenyl)amino)-5′,7′-dihydrospiro[pyrrolidine-3,6′-pyrrolo[2,3-d]pyrimidin]-2-one] | 1.94 µM | 1.94 µM | 0.0602 µM | 3.55 µM | 3.55 µM | > 10 µM | > 10 µM | 0.0679 µM | 0.0679 µM |  | 
